Drawing on US20200392126A1, “ISOXAZOLYL COMPOUNDS AS RECEPTOR MODULATING COMPOUNDS AND METHODS AND USES THEREOF” (BIONOMICS LIMITED, priority 2017, published 2020), this text covers IC50 for 7 compounds.

The target of one assay is T1, hnAChR α7/ric3 (Homo sapiens, UniProt P36544).
T1 construct: expressed in transfected cells
T1 sequence (P36544 23-502): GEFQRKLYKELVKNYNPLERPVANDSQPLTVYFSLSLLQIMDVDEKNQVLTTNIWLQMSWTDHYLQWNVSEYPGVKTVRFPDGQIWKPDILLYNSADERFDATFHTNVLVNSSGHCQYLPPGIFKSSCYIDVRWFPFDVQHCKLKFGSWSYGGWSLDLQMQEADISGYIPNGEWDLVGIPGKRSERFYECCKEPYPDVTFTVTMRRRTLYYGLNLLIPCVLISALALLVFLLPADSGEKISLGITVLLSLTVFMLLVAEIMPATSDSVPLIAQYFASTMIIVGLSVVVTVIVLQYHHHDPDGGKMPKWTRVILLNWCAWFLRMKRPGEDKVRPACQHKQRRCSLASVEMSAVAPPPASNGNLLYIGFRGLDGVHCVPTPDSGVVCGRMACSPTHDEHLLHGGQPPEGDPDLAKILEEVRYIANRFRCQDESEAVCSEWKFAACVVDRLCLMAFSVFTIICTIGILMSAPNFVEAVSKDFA
Kind of assay: IonFlux HT electrophysiological recording of hnAChR α7/ric3 currents, inhibition of ACh (200 μM, EC80) peak current.
Details: not given
In kind it is cell-based. The procedure:
All wells included a final DMSO concentration of 0.33% including all control wells.
The solutions for recording hnAChR α7/ric3 currents were:
All recordings were obtained from a holding potential of −60 mV.
Compounds were assayed using bump-in protocol. The compound addition sequence that was used for all additions was the same for all assays. One addition of the EC80 concentration of ACh (200 μM) was added to establish baseline response. The test compounds were tested on cells in increasing concentrations of 0.12, 0.37, 1.1, 3.3, 10 μM±200 μM ACh for all compounds. Each compound was applied for one minutes followed by the addition of 200 μM ACh for 1 second.
Peak inward currents in response to the ACh additions in the presence of increasing concentrations of compound were measured.
Potentiation of ACh Response=(I^Compound^+^ACh/I^ACh)
All data were first exported to an Excel compatible data file and then analyzed using Graph Pad Prism software.
Consider `Cc1nocc1S(=O)(=O)NC1(c2ccccc2)CCCCC1` [Compound 1, 3-Methyl-N-(1-phenylcyclohexyl)isoxazole-4-sulfonamide], for which the IC50 – broadly, the concentration needed to halve the response being measured – was 5700 nM.

Regarding `Cc1nocc1S(=O)(=O)N1CCN(c2ccc(F)cc2)CC1` [Compound 8, 4-(4-(4-Fluorophenyl)piperazin-1-ylsulfonyl)-3-methylisoxazole], the IC50 came out at 2200 nM.

Staying with this assay, now noted: hnAChR α7/ric3; 0.12-10 μM compound, 1 min preincubation, then 200 μM ACh for 1 s; holding potential −60 mV; read-out: IC50.
As to `Cc1nocc1S(=O)(=O)NCCc1ccccc1` [Compound 2, 3-Methyl-N-phenethylisoxazole-4-sulfonamide], the IC50 turned out to be 1700 nM.

Turning to `Cc1nocc1S(=O)(=O)NCCc1ccc(F)cc1` [Compound 3, N-(4-Fluorophenethyl)-3-methylisoxazole-4-sulfonamide], the IC50 was found to be 2200 nM.

As to `Cc1nocc1S(=O)(=O)N1CCC(c2ccc(F)cc2)CC1` [Compound 7], the IC50 stood at 400 nM.

With `Cc1nocc1S(=O)(=O)N1CCN(c2ccccn2)CC1` [Compound 10, 3-Methyl-4-(4-(pyridin-2-yl)piperazin-1-ylsulfonyl)isoxazole], the IC50 came to 6500 nM.

On to `Cc1nocc1S(=O)(=O)N1CCc2ccccc2CC1` [Compound 11, 3-Methyl-4-((1,2,4,5-tetrahydro-3H-benzo[d]azepin-3-yl)sulfonyl)isoxazole], for which the IC50 was determined as 2900 nM.
